# Results as given in patent US20250162973A1, “METHODS OF SYNTHESIS AND USES OF AGRIMOL COMPOUNDS” (Versitech Limited, priority 2022, published 2025).
# Read-outs that look alike come from different tables or passages of the source.
# Key:
# [1] = test system: CCD-19Lu (human lung fibroblast normal cell); experiment: MTT cell viability assay, normal cell; assay type: cell-based; conditions: 48-h treatment
# Procedure: SUNE1 (nasopharyngeal carcinoma), AGS (gastric adenocarcinoma), HeLa (cervix adenocarcinoma), HepG2 (hepatocellular carcinoma), U-87 MG (human glioblastoma cell), U2OS (osteosarcoma), MCF-7 (breast adenocarcinoma), MDA-MB-231 (breast adenocarcinoma), HCT116 (colorectal carcinoma), SW480 (colorectal adenocarcinoma), NCI-H460 (large cell lung carcinoma), NCI-H1650 (adenocarcinoma lung carcinoma), HCC827 (adenocarcinoma lung carcinoma), A549 (lung carcinoma), and CCD-19Lu (human lung fibroblast normal cell) were all obtained from American Type Culture Collection (ATCC, Manassas, VA, USA). Minimum Essential Media (MEM, Gibco®, ThermoFisher Scientific), Dulbecco's Modified Eagle Medium (DMEM, Gibco®, ThermoFisher Scientific), and RPMI-1640 Medium (Gibco®, ThermoFisher Scientific) supplemented with 10% Fetal Bovine Serum (Gibco®, ThermoFisher Scientific), and 100 U/mL penicillin-streptomycin (Gibco™, ThermoFisher Scientific) were used for cell culture. Cells were placed into an incubator with 5% CO2 that temperature was set at 37° C. […]
# The cell viability assay was performed by a typical MTT assay. […] The formed formazan was then dissolved with SDS solution (10% SDS in 10 mM HCl) and followed the determination of absorbance at 590 nm by a microplate reader. The change in cell viability was then calculated for each drug concentration, then normalized to control. […]
# [2] = test system: human cancer cell lines (MDA-MB-231, MCF-7, HepG2, HeLa, AGS, HCT116, SW480, SUNE-1, H460, HCC827, H1650, A549); experiment: MTT cell viability assay, panel of human cancer cell lines; assay type: cell-based; conditions: Homo sapiens
# Procedure: SUNE1 (nasopharyngeal carcinoma), AGS (gastric adenocarcinoma), HeLa (cervix adenocarcinoma), HepG2 (hepatocellular carcinoma), U-87 MG (human glioblastoma cell), U2OS (osteosarcoma), MCF-7 (breast adenocarcinoma), MDA-MB-231 (breast adenocarcinoma), HCT116 (colorectal carcinoma), SW480 (colorectal adenocarcinoma), NCI-H460 (large cell lung carcinoma), NCI-H1650 (adenocarcinoma lung carcinoma), HCC827 (adenocarcinoma lung carcinoma), A549 (lung carcinoma), and CCD-19Lu (human lung fibroblast normal cell) were all obtained from American Type Culture Collection (ATCC, Manassas, VA, USA). Minimum Essential Media (MEM, Gibco®, ThermoFisher Scientific), Dulbecco's Modified Eagle Medium (DMEM, Gibco®, ThermoFisher Scientific), and RPMI-1640 Medium (Gibco®, ThermoFisher Scientific) supplemented with 10% Fetal Bovine Serum (Gibco®, ThermoFisher Scientific), and 100 U/mL penicillin-streptomycin (Gibco™, ThermoFisher Scientific) were used for cell culture. Cells were placed into an incubator with 5% CO2 that temperature was set at 37° C. For subculturing cells, 0.05% Trypsin-EDTA (Gibco®) was used for detaching and a subcultivation ratio of 1:5 was used.
# The cell viability assay was performed by a typical MTT assay. Briefly, 5*10^3 cells were seeded in the 96-well flat bottom plate and allowed to attach overnight. After drug treatment with a serial dilution from 100 μM for 48 h, 10 μL of MTT solution (5 mg/ml prepared in PBS, filtered) was added into each well and incubate for 4 h at 37° C. The formed formazan was then dissolved with SDS solution (10% SDS in 10 mM HCl) and followed the determination of absorbance at 590 nm by a microplate reader. The change in cell viability was then calculated for each drug concentration, then normalized to control. Dose response curves from each assay were fit to a Boltzmann sigmoidal function (GraphPad Prism8, version8.0.0). The cytotoxicity of AGB and its derivatives was determined by the calculation of IC50 value (half maximal inhibitory concentration) from fitted curves, which was the concentration of drug induced 50% cell viability.
smiles,measurement,setting,value
"CCCC(=O)c1c(O)c(Cc2c(O)c(Cc3c(O)c(C)c(OC)c(C(=O)CCC)c3O)c(O)c(C(=O)[C@@H](C)CC)c2O)c(O)c(C)c1OC [AGB, Agrimol B]",IC50,[1],31.1 µM
same,IC50,"[2]; 48-h treatment, range over tested cancer cell lines, read-out: IC50 values for the tested cancer cell lines",1.83 to 5.81 µM
same,IC50,"[2]; MTT assay, cancer cells, read-out: IC50 values against cancer cells",< 10 µM
